Results from ChEMBL document CHEMBL4043305, “Structure-Activity Relationship Study of Cyclic Pentapeptide Ligands for Atypical Chemokine Receptor 3 (ACKR3)” (J Med Chem, 2018).

Legend:
[1] = molecular target: C-X-C chemokine receptor type 4 (Homo sapiens, UniProt P61073); test: Displacement of [125I]SDF-1alpha from CXCR4 (unknown origin) expressed in HEK293 cells after 1 hr by scintillation counting method; type: cell-based
[2] = molecular target: Atypical chemokine receptor 3 (Homo sapiens, UniProt P25106); test: Displacement of [125I]SDF-1alpha from ACKR3 (unknown origin) expressed in CHO cells after 1 hr by scintillation counting method; type: cell-based
Atypical chemokine receptor 3, sequence (P25106 whole entry): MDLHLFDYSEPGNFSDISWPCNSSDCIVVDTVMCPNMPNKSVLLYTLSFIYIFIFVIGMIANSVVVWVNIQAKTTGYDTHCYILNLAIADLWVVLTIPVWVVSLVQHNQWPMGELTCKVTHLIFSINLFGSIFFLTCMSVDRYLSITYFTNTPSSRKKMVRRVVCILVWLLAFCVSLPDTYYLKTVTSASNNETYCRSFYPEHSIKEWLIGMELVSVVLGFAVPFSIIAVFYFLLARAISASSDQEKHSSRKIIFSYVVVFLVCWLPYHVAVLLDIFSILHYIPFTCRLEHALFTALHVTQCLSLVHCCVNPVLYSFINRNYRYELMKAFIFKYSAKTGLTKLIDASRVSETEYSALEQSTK

C-X-C chemokine receptor type 4, sequence (P61073 whole entry): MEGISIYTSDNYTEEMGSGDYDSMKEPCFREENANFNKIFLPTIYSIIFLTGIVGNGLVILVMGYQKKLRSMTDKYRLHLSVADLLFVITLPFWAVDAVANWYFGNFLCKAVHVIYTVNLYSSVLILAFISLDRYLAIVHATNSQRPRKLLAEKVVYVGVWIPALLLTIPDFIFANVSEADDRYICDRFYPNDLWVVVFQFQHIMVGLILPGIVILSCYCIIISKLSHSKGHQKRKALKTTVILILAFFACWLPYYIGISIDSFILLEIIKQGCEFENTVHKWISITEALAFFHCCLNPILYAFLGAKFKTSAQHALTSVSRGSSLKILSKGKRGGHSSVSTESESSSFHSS

Row | IC50 [1] | IC50 [2] | Compound
1 | > 30 µM | 0.69 µM | CN1C(=O)[C@H](CCCNC(=N)N)NC(=O)[C@@H](Cc2ccc3ccccc3c2)NC(=O)[C@@H]2CCCN2C(=O)[C@H](Cc2ccc3ccccc3c2)NC(=O)[C@@H]1CCCNC(N)=O
2 | > 30 µM | 1.1 µM | CN1C(=O)[C@H](CCCNC(=N)N)NC(=O)[C@@H](Cc2ccccc2)NC(=O)[C@@H]2CCCN2C(=O)[C@H](Cc2ccc3ccccc3c2)NC(=O)[C@@H]1CCCNC(N)=O
3 | > 30 µM | 0.84 µM | CN1C(=O)[C@H](CCCCNC(=N)N)NC(=O)[C@@H](Cc2ccc(O)cc2)NC(=O)[C@@H]2CCCN2C(=O)[C@H](Cc2ccc3ccccc3c2)NC(=O)[C@@H]1CCCNC(=N)N
4 | > 30 µM | 0.56 µM | CN1C(=O)[C@H](CCCNC(=N)N)NC(=O)[C@@H](Cc2ccc(O)cc2)NC(=O)[C@@H]2CCCN2C(=O)[C@H](Cc2ccc3ccccc3c2)NC(=O)[C@@H]1CCCCNC(=N)N
5 | > 30 µM | 1.2 µM | CN1C(=O)[C@H](CCCNC(=N)N)NC(=O)[C@@H](Cc2ccc(F)cc2)NC(=O)[C@@H]2CCCN2C(=O)[C@H](Cc2ccc3ccccc3c2)NC(=O)[C@@H]1CCCNC(N)=O
6 | > 30 µM | 0.41 µM | CN1C(=O)[C@H](CCCNC(=N)N)NC(=O)[C@@H](Cc2ccccc2F)NC(=O)[C@@H]2CCCN2C(=O)[C@H](Cc2ccc3ccccc3c2)NC(=O)[C@@H]1CCCNC(N)=O
7 | > 30 µM | 1.5 µM | CN1C(=O)[C@H](CCCNC(=N)N)NC(=O)[C@@H](Cc2ccc(O)cc2)NC(=O)[C@@H]2CCCN2C(=O)[C@H](Cc2ccc3ccccc3c2)NC(=O)[C@@H]1CCNC(=N)N
8 | > 30 µM | 2 to 24 µM | CN1C(=O)[C@H](CCCCN)NC(=O)[C@@H](Cc2ccc(O)cc2)NC(=O)[C@@H]2CCCN2C(=O)[C@H](Cc2ccc3ccccc3c2)NC(=O)[C@@H]1CCCNC(=N)N
9 | > 30 µM | 1.3 µM | CN1C(=O)[C@H](CCCNC(=N)N)NC(=O)[C@@H](Cc2cccc(F)c2)NC(=O)[C@@H]2CCCN2C(=O)[C@H](Cc2ccc3ccccc3c2)NC(=O)[C@@H]1CCCNC(N)=O
10 | > 30 µM | 0.72 µM | CN1C(=O)[C@H](CCCNC(=N)N)NC(=O)[C@@H](Cc2ccc(Br)cc2)NC(=O)[C@@H]2CCCN2C(=O)[C@H](Cc2ccc3ccccc3c2)NC(=O)[C@@H]1CCCNC(N)=O
11 | > 30 µM | 2 µM | CN1C(=O)[C@H](CCCNC(=N)N)NC(=O)[C@@H](Cc2ccc([N+](=O)[O-])cc2)NC(=O)[C@@H]2CCCN2C(=O)[C@H](Cc2ccc3ccccc3c2)NC(=O)[C@@H]1CCCNC(N)=O
12 | > 30 µM | 9.5 µM | CN1C(=O)[C@H](CCC(N)=O)NC(=O)[C@@H](Cc2ccc(O)cc2)NC(=O)[C@@H]2CCCN2C(=O)[C@H](Cc2ccc3ccccc3c2)NC(=O)[C@@H]1CCCNC(=N)N
13 | > 30 µM | 2.6 µM | CN1C(=O)[C@H](CCCN)NC(=O)[C@@H](Cc2ccc(O)cc2)NC(=O)[C@@H]2CCCN2C(=O)[C@H](Cc2ccc3ccccc3c2)NC(=O)[C@@H]1CCCNC(=N)N
14 | > 30 µM | 2.6 µM | CN1C(=O)[C@H](CCNC(=N)N)NC(=O)[C@@H](Cc2ccc(O)cc2)NC(=O)[C@@H]2CCCN2C(=O)[C@H](Cc2ccc3ccccc3c2)NC(=O)[C@@H]1CCCNC(=N)N
15 | > 30 µM | 5.8 µM | CN1C(=O)[C@H](CCCNC(=N)N)NC(=O)[C@@H](Cc2ccc(O)cc2)NC(=O)[C@@H]2CCCN2C(=O)[C@H](Cc2ccc3ccccc3c2)NC(=O)[C@@H]1CCC(N)=O

More lines, now with the values behind:

Row | Compound | IC50 [1] | IC50 [2]
16 | CN1C(=O)[C@H](CCCNC(=N)N)NC(=O)[C@@H](Cc2c[nH]c3ccccc23)NC(=O)[C@@H]2CCCN2C(=O)[C@H](Cc2ccc3ccccc3c2)NC(=O)[C@@H]1CCCNC(N)=O | > 30 µM | 3.2 µM
17 | CN1C(=O)[C@H](CCCNC(=N)N)NC(=O)[C@@H](Cc2ccc(O)cc2)NC(=O)[C@@H]2Cc3[nH]c4ccccc4c3CN2C(=O)[C@H](Cc2ccc3ccccc3c2)NC(=O)[C@@H]1CCCNC(N)=O | > 30 µM | 2.1 µM
18 | CN1C(=O)[C@H](CCCNC(=N)N)NC(=O)[C@@H](Cc2ccc(O)cc2)NC(=O)[C@H](Cc2csc3ccccc23)N(C)C(=O)[C@H](Cc2ccc3ccccc3c2)NC(=O)[C@@H]1CCCNC(N)=O | > 30 µM | 1 µM
19 | CN1C(=O)[C@H](CCCNC(=N)N)NC(=O)[C@@H](Cc2ccc(O)cc2)NC(=O)[C@H](Cc2ccc(O)cc2)N(C)C(=O)[C@H](Cc2ccc3ccccc3c2)NC(=O)[C@@H]1CCCNC(N)=O | > 30 µM | 1.8 µM
20 | CN1C(=O)[C@H](CCCNC(=N)N)NC(=O)[C@@H](Cc2ccc(O)cc2)NC(=O)[C@@H]2C[C@@H]3CCCC[C@@H]3N2C(=O)[C@H](Cc2ccc3ccccc3c2)NC(=O)[C@@H]1CCCNC(N)=O | > 30 µM | 0.35 µM
21 | CN1C(=O)[C@H](CCCNC(=N)N)NC(=O)[C@@H](Cc2csc3ccccc23)NC(=O)[C@@H]2CCCN2C(=O)[C@H](Cc2ccc3ccccc3c2)NC(=O)[C@@H]1CCCNC(N)=O | > 30 µM | 0.54 µM
22 | CSCC[C@H]1C(=O)N[C@H](Cc2ccc(O)cc2)C(=O)N[C@@H](CCCNC(=N)N)C(=O)N(C)[C@@H](CCCNC(N)=O)C(=O)N[C@@H](Cc2ccc3ccccc3c2)C(=O)N1C | > 30 µM | 1.8 µM
23 | CN1C(=O)[C@H](CCCNC(=N)N)NC(=O)[C@@H](Cc2ccc(O)cc2)NC(=O)[C@H](Cc2ccccc2)N(C)C(=O)[C@H](Cc2ccc3ccccc3c2)NC(=O)[C@@H]1CCCNC(N)=O | > 30 µM | 0.6 µM
24 | CN1C(=O)[C@H](Cc2c[nH]c3ccccc23)NC(=O)[C@@H](Cc2ccc(O)cc2)NC(=O)[C@@H]2CCCN2C(=O)[C@H](Cc2ccc3ccccc3c2)NC(=O)[C@@H]1CCCNC(=N)N | > 30 µM | 2 to 24 µM
25 | CC(C)[C@@H]1NC(=O)[C@@H](Cc2ccc(O)cc2)NC(=O)[C@@H]2CCCN2C(=O)[C@H](Cc2ccc3ccccc3c2)NC(=O)[C@H](CCCNC(=N)N)N(C)C1=O | > 30 µM | 2 to 24 µM
26 | CN1C(=O)[C@H](CCCNC(=N)N)NC(=O)[C@@H](Cc2ccc(O)cc2)NC(=O)[C@@H]2CCCN2C(=O)[C@H](Cc2ccc3ccccc3c2)NC(=O)[C@@H]1CC(N)=O | > 30 µM | 4.1 µM
27 | CN1C(=O)[C@H](CCCNC(=N)N)NC(=O)[C@@H](Cc2ccc(O)cc2)NC(=O)[C@H](Cc2c[nH]c3ccccc23)NC(=O)[C@H](Cc2ccc3ccccc3c2)NC(=O)[C@@H]1CCCNC(N)=O | > 30 µM | 0.85 µM
28 | CN1C(=O)[C@H](CCCCNC(=N)N)NC(=O)[C@@H](Cc2ccccc2F)NC(=O)[C@H](Cc2cccc3ccccc23)N(C)C(=O)[C@H](Cc2ccc3ccccc3c2)NC(=O)[C@@H]1CCCCNC(=N)N |  | 0.45 µM
29 | C[C@@H](O)[C@@H]1NC(=O)[C@@H](Cc2ccc(O)cc2)NC(=O)[C@@H]2CCCN2C(=O)[C@H](Cc2ccc3ccccc3c2)NC(=O)[C@H](CCCNC(=N)N)N(C)C1=O | > 30 µM | 2 to 24 µM
30 | CN1C(=O)[C@H](Cc2ccccc2)NC(=O)[C@@H](Cc2ccc(O)cc2)NC(=O)[C@@H]2CCCN2C(=O)[C@H](Cc2ccc3ccccc3c2)NC(=O)[C@@H]1CCCNC(=N)N | > 30 µM | 2 to 24 µM
31 | CC[C@H](C)[C@H]1C(=O)N[C@H](Cc2ccc(O)cc2)C(=O)N[C@@H](CCCNC(=N)N)C(=O)N(C)[C@@H](CCCNC(N)=O)C(=O)N[C@@H](Cc2ccc3ccccc3c2)C(=O)N1C | > 30 µM | 2.2 µM
32 | CN1C(=O)[C@H](Cc2ccc(O)cc2)NC(=O)[C@@H](Cc2ccc(O)cc2)NC(=O)[C@@H]2CCCN2C(=O)[C@H](Cc2ccc3ccccc3c2)NC(=O)[C@@H]1CCCNC(=N)N | > 30 µM | 2 to 24 µM
33 | CN1C(=O)[C@H](CCCNC(=N)N)NC(=O)[C@@H](Cc2ccc(O)cc2)NC(=O)[C@H](Cc2ccc(-c3ccccc3)cc2)N(C)C(=O)[C@H](Cc2ccc3ccccc3c2)NC(=O)[C@@H]1CCCNC(N)=O | > 30 µM | 4 µM
34 | CC(C)C[C@@H]1NC(=O)[C@@H](Cc2ccc(O)cc2)NC(=O)[C@@H]2CCCN2C(=O)[C@H](Cc2ccc3ccccc3c2)NC(=O)[C@H](CCCNC(=N)N)N(C)C1=O | > 30 µM | 2 to 24 µM
35 | CN1C(=O)[C@H](CCCNC(=N)N)NC(=O)[C@@H](Cc2ccc(O)cc2)NC(=O)[C@@H]2Cc3ccccc3N2C(=O)[C@H](Cc2ccc3ccccc3c2)NC(=O)[C@@H]1CCCNC(N)=O | > 30 µM | 0.19 µM
36 | CSCC[C@@H]1NC(=O)[C@@H](Cc2ccc(O)cc2)NC(=O)[C@@H]2CCCN2C(=O)[C@H](Cc2ccc3ccccc3c2)NC(=O)[C@H](CCCNC(=N)N)N(C)C1=O | > 30 µM | 2 to 24 µM
37 | CN1C(=O)[C@H](Cc2ccc3ccccc3c2)NC(=O)[C@H](CCCNC(N)=O)N(C)C(=O)[C@H](CCCNC(=N)N)NC(=O)[C@@H](Cc2ccc(O)cc2)NC(=O)[C@H]1CS | 21 µM | 4.6 µM
38 | CN1C(=O)[C@H](CO)NC(=O)[C@@H](Cc2ccc(O)cc2)NC(=O)[C@@H]2CCCN2C(=O)[C@H](Cc2ccc3ccccc3c2)NC(=O)[C@@H]1CCCNC(=N)N | > 30 µM | 2 to 24 µM
39 | CC(C)C[C@H]1C(=O)N[C@H](Cc2ccc(O)cc2)C(=O)N[C@@H](CCCNC(=N)N)C(=O)N(C)[C@@H](CCCNC(N)=O)C(=O)N[C@@H](Cc2ccc3ccccc3c2)C(=O)N1C | > 30 µM | 1.9 µM
40 | CN1C(=O)[C@@H](CS)NC(=O)[C@@H](Cc2ccc(O)cc2)NC(=O)[C@@H]2CCCN2C(=O)[C@H](Cc2ccc3ccccc3c2)NC(=O)[C@@H]1CCCNC(=N)N | > 30 µM | 0.25 µM
41 | CN1C(=O)[C@H](CCCNC(=N)N)NC(=O)[C@@H](Cc2ccc(O)cc2)NC(=O)[C@H](Cc2ccc3ccccc3c2)N(C)C(=O)[C@H](Cc2ccc3ccccc3c2)NC(=O)[C@@H]1CCCNC(N)=O | > 30 µM | 2.6 µM
42 | CC[C@H](C)[C@@H]1NC(=O)[C@@H](Cc2ccc(O)cc2)NC(=O)[C@@H]2CCCN2C(=O)[C@H](Cc2ccc3ccccc3c2)NC(=O)[C@H](CCCNC(=N)N)N(C)C1=O | > 30 µM | 2 to 24 µM
43 | CN1C(=O)[C@H](CCCNC(=N)N)NC(=O)[C@@H](Cc2ccc(C(=O)c3ccccc3)cc2)NC(=O)[C@@H]2CCCN2C(=O)[C@H](Cc2ccc3ccccc3c2)NC(=O)[C@@H]1CCCNC(N)=O | > 30 µM | 0.72 µM
